Results on 29 compounds are retold here after patent publication US20230091047A1 (priority 2019, published 2023).

Molecules are shown by their SMILES. Read-outs that look alike come from different tables or passages of the source.

The nature of one series: in vitro. The note with it: human, HepG2 or HepG2.117 cells, ATPlite, mean value; for CC50 at 4 days: 4-days incubation (values marked with *). In kind it is cell-based. An outline of the steps:
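Luminescent ATP quantitation served as the viability endpoint following a 3- or 4-day incubation with test compounds.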

Series [1] deals with HBV (HepG2.117 cell line, inducibly HBV producing). Put plainly: Anti-HBV activity: intracellular HBV DNA by real-time PCR in HepG2.117 cells after 3 days of treatment. The format is cell-based, hepatitis B virus. Put shortly: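 Read-out is intracellular HBV DNA, measured by real-time PCR using HBV-specific primers and probe. Cells were stable, inducible HBV-producing HepG2.117 (Tet-off). Serially diluted compound was applied for 3 days after replication was induced.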

Where [2] appears, read: 3-days incubation (unmarked values).
The mark [3] stands for this setting: Hepatitis B virus, HepG2.117, 72 h, HepG2.117 cells, 3 days of treatment, intracellular HBV DNA by real-time PCR; mean value; read-out: EC50 (μM, mean value).
[4] abbreviates: 3-days incubation (not marked with *).
[5] abbreviates: Hepatitis B virus, HepG2.117, 72 h, HepG2.117 cells, intracellular HBV DNA by real-time PCR, 3 days of treatment, mean value; read-out: EC50 (μM, mean value).

One may read the CC50 as the concentration that lowers cell viability or growth by half. Lower therefore signals harm at low concentration. In general, EC50 refers to the concentration needed to bring the measured effect to its halfway point. For `COc1ccc(CNc2nc3c(c(=O)n2-c2ccccc2OC)C[C@@H](C)N(C(=O)c2ccc(Cl)c(Cl)c2)C3)cc1` (single isomer, unassigned) [Compound C36Aa], the 50% cytotoxic concentration (CC50) at 3 days in the series “in vitro” (setting [2]) is more than 50 µM. Also, in series [1] (setting [3]), the EC50 amounted to 0.31 µM.

Turning to `CC(C)Nc1nc2c(c(=O)n1-c1ccc(-c3ncccn3)cc1)CCN(C(=O)c1ccc(Cl)c(Cl)c1)C2` [Compound C187, 7-(3,4-dichlorobenzoyl)-2-[(propan-2-yl)amino]-3-[4-(pyrimidin-2-yl)phenyl]-5,6,7,8-tetrahydropyrido[3,4-d]pyrimidin-4(3H)-one], the CC50 at 3 days in “in vitro” (setting [2]) is more than 45 µM. The EC50 in series [1] (setting [3]) is 0.71 µM.

For the compound `CNC(=O)c1ccc(-n2c(NC(C)C)nc3c(c2=O)C[C@@H](C)N(C(=O)c2cc(F)c(C(F)(F)F)c(F)c2)C3)cc1` [Compound C476], the CC50 at 3 days in the series “in vitro” (setting [4]) was more than 50 µM. The EC50 in series [1] (setting [5]) is 0.12 µM.

In the series “in vitro”, `COc1ccccc1-n1c(NCc2ccccc2)nc2c(c1=O)CCN(C(=O)c1ccc(Cl)c(Cl)c1)C2` [Compound C10, 2-(benzylamino)-7-(3,4-dichlorobenzoyl)-3-(2-methoxyphenyl)-5,6,7,8-tetrahydropyrido[3,4-d]pyrimidin-4(3H)-one] displayed a CC50 at 4 days of more than 50 µM. Further, the EC50 in series [1] (setting [3]) came to 6.21 µM.

`CNC(=O)c1ccc(-n2c(NC(C)C)nc3c(c2=O)C[C@@H](C)N(C(=O)c2ccc(Cl)c(Cl)c2)C3)cc1F` [Compound C274, 4-[(6R)-7-(3,4-dichlorobenzoyl)-6-methyl-4-oxo-2-[(propan-2-yl)amino]-5,6,7,8-tetrahydropyrido[3,4-d]pyrimidin-3(4H)-yl]-2-fluoro-N-methylbenzamide] registered a CC50 at 3 days in “in vitro” (setting [2]) of more than 50 µM. Also, the concentration giving a half-maximal response (EC50) in series [1] (setting [3]) is 0.09 µM.

In turn, `CNC(=O)c1ccc(-n2c(NC(C)C)nc3c(c2=O)C[C@@H](C)N(C(=O)c2ccc(Cl)cc2C(F)(F)F)C3)cc1` [Compound C648] gave a 50% cytotoxic concentration (CC50) at 3 days in the series “in vitro” (setting [4]) of more than 50 µM. Further, the EC50 in series [1] (setting [5]) is 0.22 µM.

On to `CCc1cc(C(=O)NC)ccc1-n1c(NC(C)C)nc2c(c1=O)C[C@@H](C)N(C(=O)c1ccc(Cl)c(Cl)c1)C2` (single isomer, unassigned) [Compound C383a], for which the cytotoxic concentration (CC50) at 3 days in “in vitro” (setting [4]) is more than 50 µM. Moreover, the half-maximal effective concentration (EC50) in series [1] (setting [5]) stood at 0.32 µM.

In “in vitro” (setting [4]), `CNC(=O)c1ccc(-n2c(NC(C)C)nc3c(c2=O)C[C@@H](C)N(C(=O)c2ccc(Br)c(C)c2F)C3)cc1` [Compound C584] gave a cytotoxic concentration (CC50) at 3 days of more than 50 µM. The EC50 in series [1] (setting [5]) turned out to be 0.1 µM.

For the compound `CNC(=O)c1ccc(-n2c(NCc3cnn(C)n3)nc3c(c2=O)C[C@@H](C)N(C(=O)c2ccc(Cl)c(Cl)c2)C3)cc1` [Compound C560], the 50% cytotoxic concentration (CC50) at 3 days in the series “in vitro” (setting [4]) was more than 50 µM. Moreover, the half-maximal effective concentration (EC50) in series [1] (setting [5]) was determined as 2.59 µM.

`COc1ccc(CNc2nc3c(c(=O)n2-c2ccccn2)CCN(C(=O)c2ccc(Cl)c(Cl)c2)C3)cc1` [Compound C78, 7-(3,4-dichlorobenzoyl)-2-{[(4-methoxyphenyl)methyl]amino}-3-(pyridin-2-yl)-5,6,7,8-tetrahydropyrido[3,4-d]pyrimidin-4(3H)-one] came in with a cytotoxic concentration (CC50) at 3 days in the series “in vitro” (setting [2]) of 41.8 µM. In addition, the EC50 in series [1] (setting [3]) was determined as 2.11 µM.

As for `CC(C)Nc1nc2c(c(=O)n1-c1ccc(S(C)(=O)=O)cc1)CCN(C(=O)c1cc3ccccc3o1)C2` [Compound C152, 7-(1-benzofuran-2-carbonyl)-3-[4-(methanesulfonyl)phenyl]-2-[(propan-2-yl)amino]-5,6,7,8-tetrahydropyrido[3,4-d]pyrimidin-4(3H)-one], the CC50 at 3 days in the series “in vitro” (setting [2]) is more than 50 µM. Moreover, the 50% effective concentration (EC50) in series [1] (setting [3]) worked out at 30.8 µM.

Turning to `CNC(=O)c1ccc(-n2c(N3CC[C@@H]3c3ccccc3)nc3c(c2=O)C[C@@H](C)N(C(=O)c2ccc(Cl)c(Cl)c2)C3)cc1` (single isomer, unassigned) [Compound C348, 4-[(6R)-7-(3,4-dichlorobenzoyl)-6-methyl-4-oxo-2-[(2*R)-2-phenylazetidin-1-yl]-5,6,7,8-tetrahydropyrido[3,4-d]pyrimidin-3(4H)-yl]-N-methylbenzamide], in “in vitro” (setting [2]), the midpoint of cytotoxicity, the CC50 at 3 days, lay at 31.2 µM. The EC50 in series [1] (setting [3]) turned out to be 0.2 µM.

With `COc1ccc(CNc2nc3c(c(=O)n2-c2ccc(S(C)(=O)=O)cc2)C[C@H](C)N(C(=O)c2ccc(Cl)c(Cl)c2)C3)cc1` [Compound C140, (6S)-7-(3,4-dichlorobenzoyl)-3-[4-(methanesulfonyl)phenyl]-2-{[(4-methoxyphenyl)methyl]amino}-6-methyl-5,6,7,8-tetrahydropyrido[3,4-d]pyrimidin-4(3H)-one], in “in vitro” (setting [2]), the 50% cytotoxic concentration (CC50) at 3 days is more than 50 µM. Further, the half-maximal effective concentration (EC50) in series [1] (setting [3]) was 1.88 µM.

`CNC(=O)c1ccc(-n2c(N(C)Cc3cnc4ccc(Cl)cn34)nc3c(c2=O)C[C@@H](C)N(C(=O)c2ccc(Cl)c(Cl)c2)C3)cc1` [Compound C562] registered a 50% cytotoxic concentration (CC50) at 3 days in the series “in vitro” (setting [4]) of 26.8 µM. Besides, the EC50 in series [1] (setting [5]) was 2.87 µM.

As for `COc1ccc(C(CCO)Nc2nc3c(c(=O)[nH]2)CCN(C(=O)c2ccc(Cl)c(Cl)c2)C3)cc1` (stereo not shown) [Compound C92, 7-(3,4-dichlorobenzoyl)-2-{[3-hydroxy-1-(4-methoxyphenyl)propyl]amino}-5,6,7,8-tetrahydropyrido[3,4-d]pyrimidin-4(3H)-one], in “in vitro” (setting [2]), the midpoint of cytotoxicity, the CC50 at 3 days, lay at 24.8 µM. Also, the EC50 in series [1] (setting [3]) was found to be 7.09 µM.

`CNC(=O)c1ccc(-n2c(NCc3cccc(-n4cncn4)c3)nc3c(c2=O)C[C@@H](C)N(C(=O)c2ccc(Cl)c(Cl)c2)C3)cc1` [Compound C543] displayed a CC50 at 3 days in the series “in vitro” (setting [4]) of more than 50 µM. In addition, the 50% effective concentration (EC50) in series [1] (setting [5]) turned out to be 7.02 µM.

Compound `CC(C)Nc1nc2c(c(=O)n1-c1ccncc1)CCN(C(=O)c1ccc(Cl)c(Cl)c1)C2` [Compound C122, 7-(3,4-dichlorobenzoyl)-2-[(propan-2-yl)amino]-3-(pyridin-4-yl)-5,6,7,8-tetrahydropyrido[3,4-d]pyrimidin-4(3H)-one] yielded a CC50 at 3 days in the series “in vitro” (setting [2]) of more than 50 µM. Moreover, the EC50 in series [1] (setting [3]) came out at 1.44 µM.

Consider `CC(C)Nc1nc2c(c(=O)n1-c1ccc(S(=O)(=O)NC(C)C)cc1)C[C@@H](C)N(C(=O)c1ccc(Cl)c(Cl)c1)C2` [Compound C388], for which the CC50 at 3 days in “in vitro” (setting [4]) is more than 50 µM. For the same compound, in series [1] (setting [5]), the EC50 worked out at 0.62 µM.

In “in vitro” (setting [2]), `CNC(=O)c1ccc(-n2c(NC(C)c3ccnn3C)nc3c(c2=O)C[C@@H](C)N(C(=O)c2ccc(Cl)c(Cl)c2)C3)cc1` (stereo partly shown) [Compound C372] came in with a CC50 at 3 days of more than 50 µM. The EC50 in series [1] (setting [3]) worked out at 11.7 µM.

`CNC(=O)c1ccc(-n2c(NC(C)C)nc3c(c2=O)C[C@@H](C)N(C(=O)c2ccc(F)c(C#N)c2)C3)cc1` [Compound C641] registered a 50% cytotoxic concentration (CC50) at 3 days in “in vitro” (setting [4]) of more than 50 µM. Further, the EC50 in series [1] (setting [5]) is 1.99 µM.

`CNC(=O)c1ccc(-n2c(NC(C)C)nc3c(c2=O)C[C@@H](C)N(C(=O)c2ccc(Cl)c(Cl)c2)C3)nc1` [Compound C304, 6-[(6R)-7-(3,4-dichlorobenzoyl)-6-methyl-4-oxo-2-[(propan-2-yl)amino]-5,6,7,8-tetrahydropyrido[3,4-d]pyrimidin-3(4H)-yl]-N-methylpyridine-3-carboxamide]: the CC50 at 3 days in “in vitro” (setting [2]) is more than 50 µM. Further, the half-maximal effective concentration (EC50) in series [1] (setting [3]) worked out at 0.07 µM.

In the case of `CNC(=O)c1ccc(-n2c(N[C@H](C)c3ccc(S(C)(=O)=O)cc3)nc3c(c2=O)C[C@@H](C)N(C(=O)c2ccc(Cl)c(Cl)c2)C3)cc1` (single isomer, unassigned) [Compound C412a], in “in vitro” (setting [4]), the half-maximal cytotoxic concentration (CC50) at 3 days is more than 50 µM. Moreover, the concentration giving a half-maximal response (EC50) in series [1] (setting [5]) turned out to be 0.94 µM.

In “in vitro” (setting [4]), `CNC(=O)c1csc(-n2c(NC(C)C)nc3c(c2=O)C[C@@H](C)N(C(=O)c2ccc(Cl)c(Cl)c2)C3)n1` [Compound C379] came in with a CC50 at 3 days of 22.1 µM. Further, in series [1] (setting [5]), the EC50 came out at 0.22 µM.

Turning to `COc1ccc(CNc2nc3c(c(=O)[nH]2)CCN(C(=O)c2ccc(Cl)c(C#N)c2)C3)cc1` [Compound C103, 2-chloro-5-[2-{[(4-methoxyphenyl)methyl]amino}-4-oxo-4,5,6,8-tetrahydropyrido[3,4-d]pyrimidine-7(3H)-carbonyl]benzonitrile], the 50% cytotoxic concentration (CC50) at 3 days in the series “in vitro” (setting [2]) is more than 50 µM. Besides, the EC50 in series [1] (setting [3]) stood at 18.3 µM.

`CNC(=O)c1ccc(-n2c(NC(C)C)nc3c(c2=O)C[C@@H](C)N(C(=O)c2nn(C)c4ccccc24)C3)cc1` [Compound C477] yielded a CC50 at 3 days in the series “in vitro” (setting [4]) of more than 50 µM. Besides, the EC50 in series [1] (setting [5]) was 10.2 µM.

On to `COc1ccc(CN(CCCO)c2nc3c(c(=O)[nH]2)CCN(C(=O)c2ccc(Cl)c(Cl)c2)C3)cc1` [Compound C90, 7-(3,4-dichlorobenzoyl)-2-{(3-hydroxypropyl)[(4-methoxyphenyl)methyl]amino}-5,6,7,8-tetrahydropyrido[3,4-d]pyrimidin-4(3H)-one], for which half-maximal cytotoxicity in the series “in vitro” (setting [2]) (CC50 at 3 days) was put at 21.2 µM. Also, the EC50 in series [1] (setting [3]) came to 8 µM.

`COc1ccccc1-n1c(NCCc2ccccc2)nc2c(c1=O)CCN(C(=O)c1ccc(Cl)c(Cl)c1)C2` [Compound C20, 7-(3,4-dichlorobenzoyl)-3-(2-methoxyphenyl)-2-[(2-phenylethyl)amino]-5,6,7,8-tetrahydropyrido[3,4-d]pyrimidin-4(3H)-one] gave a CC50 at 4 days in the series “in vitro” of 23.1 µM. Moreover, in series [1] (setting [3]), the EC50 was determined as 8.92 µM.

`CNC(=O)c1ccc(-n2c(N3CCOCC(C)C3)nc3c(c2=O)C[C@@H](C)N(C(=O)c2ccc(Cl)c(Cl)c2)C3)cc1` (stereo partly shown) [Compound C518] displayed a 50% cytotoxic concentration (CC50) at 3 days in the series “in vitro” (setting [4]) of more than 50 µM. Besides, in series [1] (setting [5]), the EC50 is 0.47 µM.

As for `CNC(=O)c1ccc(-n2c(N[C@H](c3ccc(OC)cc3)C(C)C)nc3c(c2=O)C[C@@H](C)N(C(=O)c2ccc(Cl)c(Cl)c2)C3)cc1` (single isomer, unassigned) [Compound C422b], it took 17.2 µM to reach half-maximal cytotoxicity in the series “in vitro” (setting [4]) (CC50 at 3 days). Further, in series [1] (setting [5]), the concentration for a half-maximal effect (EC50) was 0.28 µM.
